Experiments:
[1] = test system: HCMV AD 169; experiment: Virus binding assay (HCMV attachment, gB ELISA); format: cell-based, Human cytomegalovirus; settings: NHDF, 4° C.; 1 mM gB disintegrin-like peptide, 1:50 DE9, α2 and α6 integrin antibodies 20 μg/mL
Description: NHDF cells were grown in 96-well plates and treated with integrin-neutralizing antibodies, peptides, or heparin for 60 minutes at 4° C. Cells were then challenged with HCMV AD 169 at a multiplicity of infection (MOI) of 5 pfu/cell for 60 minutes at 4° C. Unbound virus was removed and cells were washed and fixed with 3% paraformaldehyde. Bound HCMV was detected with monoclonal antibody 27-78, horseradish peroxidase (HRP)-conjugated goat anti-mouse secondary antibody, and ImmunoPure TMB Substrate Kit (Pierce, Rockford, Ill.). Absorbance was measured at 450 nm. All experiments were performed in triplicate.
During virus infection, integrins are utilized as primary viral attachment receptors or as post-attachment (fusion-activating) or internalization receptors.^11 To determine at which step in the HCMV entry pathway integrins are functioning, cell binding (i.e., attachment) experiments were performed, as well as assays to measure viral payload delivery into the cytoplasm (internalization). For the binding assays, virus was bound at 4° C. to allow for stable virus binding, but to restrict fusion and internalization. The results are depicted in FIG. 6A. […] Attachment was measured by gB ELISA.

[2] = test system: diI-labeled HCMV; format: cell-based, Human cytomegalovirus; settings: gBDLD or BSA 320 μg/mL, soluble heparin 50 μg/mL; 24 hours post-infection
[3] = test system: HCMV strain AD169; experiment: Virus entry assay, HCMV infectivity by IE gene expression; format: cell-based, Human cytomegalovirus; settings: NHDFs treated prior to HCMV challenge
Description: (§1) For CMV entry assays, subconfluent cells were grown on glass coverslips in 12-well plates. Integrin neutralizing antibodies or peptides were incubated in serum-free DMEM with cell monolayer for 30 minutes at 37° C. Cells were washed with phosphate-buffered saline (PBS) and incubated with HCMV strain AD169, MCMV Smith strain, or MCMV-GFP for 60 minutes at 37° C. Any non-penetrated virus was inactivated with low-pH citrate buffer (40 mM citric acid, 10 mM KCl, 135 mM NaCl, pH 3.0). The cells were incubated 20-24 hours at 37° C. in DMEM supplemented with 2% bovine calf serum (BCS). […] Experiments were performed in triplicate with a minimum of 1000 cells scored per coverslip. […] Cells were incubated 6 hours at 37° C. in DMEM supplemented with 10% BCS prior to lysis (100 mM sodium phosphate, 10 mM KCl, 1 mM magnesium sulfate, 0.1% NP-40, pH 7.4). β-galactosidase activity was measured by addition of o-nitrophenyl-β-D-galactopyranoside (ONPG) and the absorbance was monitored at 420 nm.
FIG. 2A presents the results of a series of assays wherein NHDFs were treated with HCMV gB disintegrin-like peptide, gB disintegrin-like Null peptide, RGD, or RGE peptide prior to HCMV challenge (as indicated in the FIG. 2A). Infectivity was determined by IE gene expression. […]

[4] = test system: HCMV; experiment: Viral payload delivery, pp65 localization; format: cell-based, Human cytomegalovirus; settings: human fibroblasts treated, then infected with HCMV
Description: as §1
Next, an assay was performed that directly measured delivery of an internal virion component. […] FIG. 6B is a histogram showing the results of a series of assays wherein human fibroblasts were treated with various integrin-blocking agents, infected with HCMV, and then assayed for viral payload as measured by pp65 localization. […]

[5] = test system: MCMV Smith strain; experiment: Virus entry assay, MCMV infectivity by e1-positive cells; format: cell-based, Murine cytomegalovirus; settings: mouse fibroblasts (murine 3T3) treated with peptide
Description: as §1, with “nm. […]” for “nm.”
FIG. 4B is a histogram showing the results of an assay wherein GD25, GD25β1 and 3T3 cells were treated with β1, β3, and β1+β3 antibodies, followed by MCMV infection. As described above, infectivity was determined by scoring e1-(early protein) positive cells. […]

[6] = test system: HSV-1(KOS)gL86; experiment: HSV entry assay (β-galactosidase activity); format: cell-based, herpes simplex virus-1; settings: NHDF cells treated with peptide
Description: For CMV entry assays, subconfluent cells were grown on glass coverslips in 12-well plates. Integrin neutralizing antibodies or peptides were incubated in serum-free DMEM with cell monolayer for 30 minutes at 37° C. Cells were washed with phosphate-buffered saline (PBS) and incubated with HCMV strain AD169, MCMV Smith strain, or MCMV-GFP for 60 minutes at 37° C. Any non-penetrated virus was inactivated with low-pH citrate buffer (40 mM citric acid, 10 mM KCl, 135 mM NaCl, pH 3.0). The cells were incubated 20-24 hours at 37° C. in DMEM supplemented with 2% bovine calf serum (BCS). Immunofluorescence analysis was performed as previously described^28 with either mouse anti-IE monoclonal antibody 1203, mouse anti-pp65 monoclonal antibody or rabbit anti-MCMV e1 polyclonal, followed by detection with a fluorescein-conjugated goat anti-mouse secondary or a fluorescein-conjugated goat anti-rabbit secondary antibody. Nuclei were stained with 300 nM 4′,6-diamidino-2-phenylindole (DAPI). Experiments were performed in triplicate with a minimum of 1000 cells scored per coverslip. […] Cells were incubated 6 hours at 37° C. in DMEM supplemented with 10% BCS prior to lysis (100 mM sodium phosphate, 10 mM KCl, 1 mM magnesium sulfate, 0.1% NP-40, pH 7.4). β-galactosidase activity was measured by addition of o-nitrophenyl-β-D-galactopyranoside (ONPG) and the absorbance was monitored at 420 nm. […]

| Substance | HCMV attachment (gB ELISA) [1] | HCMV fusion (dye transfer) and gene expression [2] | HCMV infectivity (IE gene expression) [3] | uptake of pp65 tegument protein [4] | MCMV infectivity [5] | ability of HSV-1 to infect cells [6] |
| --- | --- | --- | --- | --- | --- | --- |
| heparin [soluble heparin, reference compound] | prevented virus attachment | blocks HCMV attachment | – | – | – | – |
| RVCSMAQGTDLIRFERNIIC (listed as Human cytomegalovirus) [gB disintegrin-like peptide, synthetic 20 amino acid peptide encompassing the HCMV gB disintegrin-like domain] | no effect | – | dose-dependent inhibitory response | little uptake | dramatic reduction in MCMV infectivity | no effect |
| AVCSMAGGTAAIRAERNIIC (listed as Human cytomegalovirus) [gB disintegrin-like null peptide, null peptide with alanine substitutions in the disintegrin-like consensus residues, reference compound] | – | – | able to infect | not | – | – |

Source: patent US8586034B2, “Cytomegalovirus disintegrin-like peptides” (priority 2004, dated 2013)
